Measurements as given in patent publication US20250026778A1 (TIUMBIO CO., LTD., priority 2021, published 2025).
Where two headings read alike, the source gives them in different places.

Target: T1, his-galectin-3 (Homo sapiens, UniProt P17931)
T1 construct: purchased Abcam
Experiment: TR-FRET assay (in vitro galectin-3 binding inhibitory activity test)
Conditions: compound at 20 μM, 60 nM his-galectin-3, 15 nM biotin-ASF
Method in brief: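 Compound is premixed with his-galectin-3 (60 nM final), then biotin-ASF (15 nM), Tb anti-His antibody (2 nM) and streptavidin-d2 (20 nM) are added. After at least 3.5 hours at RT in HEPES/NaCl buffer with Tween 20 and BSA, TR-FRET is read at 615/665 nm. DMSO serves as the uninhibited control, ASF omission as background.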

[1] = read-out: % Inhibitory activity (at 20 μM), Table 1
[2] = read-out: % Inhibitory activity (at 20 μM), Table 2
[3] = Table 1, read-out: % Inhibitory activity (at 20 μM)
[4] = Table 2, read-out: % Inhibitory activity (at 20 μM)

T1 sequence (P17931 whole entry): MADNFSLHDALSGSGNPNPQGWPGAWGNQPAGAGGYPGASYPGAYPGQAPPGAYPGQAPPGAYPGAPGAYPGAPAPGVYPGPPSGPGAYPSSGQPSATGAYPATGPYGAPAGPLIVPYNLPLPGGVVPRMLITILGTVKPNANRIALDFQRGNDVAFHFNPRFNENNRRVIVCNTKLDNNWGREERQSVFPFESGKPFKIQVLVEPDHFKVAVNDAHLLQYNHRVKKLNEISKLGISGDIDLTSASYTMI

| inhibition at 20 µM [3] [%] | inhibition at 20 µM [4] [%] | Compound | other results |
| --- | --- | --- | --- |
| – | – | O=C(Cc1cccc(Cl)c1)N1CCC[C@]2(C1)O[C@H](CO)[C@H](O)[C@H](n1cc(-c3cc(F)c(F)c(F)c3)nn1)[C@H]2O [Compound A139, 2-(3-chlorophenyl)-1-((2R,3R,4S,5R,6R)-3,5-dihydroxy-2-(hydroxymethyl)-4-(4-(3,4,5-trifluorophenyl)-1H-1,2,3-triazol-1-yl)-1-oxa-8-azaspiro[5.5]undecan-8-yl)ethanone] | inhibition at 20 µM [1]: < 25% |
| – | – | OC[C@H]1O[C@]2(OCC[C@H]2n2cc(-c3cccc(Cl)c3)nn2)[C@H](O)[C@@H](n2cc(-c3cc(F)c(F)c(F)c3)nn2)[C@H]1O [Compound A205, (4R,5S,7R,8R,9S,10R)-4-(4-(3-chlorophenyl)-1H-1,2,3-triazol-1-yl)-7-(hydroxymethyl)-9-(4-(3,4,5-trifluorophenyl)-1H-1,2,3-triazol-1-yl)-1,6-dioxaspiro[4.5]decane-8,10-diol] | inhibition at 20 µM [2]: < 25% |
| < 25 | – | OC[C@H]1O[C@]2(OCC[C@H]2NCc2ccccn2)[C@H](O)[C@@H](n2cc(-c3cc(F)c(F)c(F)c3)nn2)[C@H]1O [Compound A98, (4R,5S,7R,8R,9S,10R)-7-(hydroxymethyl)-4-((pyridin-2-ylmethyl)amino)-9-(4-(3,4,5-trifluorophenyl)-1H-1,2,3-triazol-1-yl)-1,6-dioxaspiro[4.5]decane-8,10-diol] | – |
| – | 25 to 50 | OC[C@H]1O[C@]2(OCC[C@H]2/N=C\c2ccc3ccccc3c2O)[C@H](O)[C@@H](n2cc(-c3cc(F)c(F)c(F)c3)nn2)[C@H]1O [Compound A203, (4R,5S,7R,8R,9S,10R)-7-(hydroxymethyl)-4-((Z)-((1-hydroxynaphthalen-2-yl)methylene)amino)-9-(4-(3,4,5-trifluorophenyl)-1H-1,2,3-triazol-1-yl)-1,6-dioxaspiro[4.5]decane-8,10-diol] | – |
| – | – | OC[C@H]1O[C@@]2(CCCN(Cc3ccccc3)C2)[C@H](O)[C@@H](n2cc(-c3cc(F)c(F)c(F)c3)nn2)[C@H]1O [Compound A141, (2R,3R,4S,5R,6R)-8-benzyl-2-(hydroxymethyl)-4-(4-(3,4,5-trifluorophenyl)-1H-1,2,3-triazol-1-yl)-1-oxa-8-azaspiro[5.5]undecane-3,5-diol] | inhibition at 20 µM [1]: < 25% |
| – | 50 to 75 | O=C(N[C@@H]1CCO[C@]12O[C@H](CO)[C@H](O)[C@H](n1cc(-c3cc(F)c(F)c(F)c3)nn1)[C@H]2O)C1CCc2ccccc21 (stereo partly drawn) [Compound A163, N-((4R,5S,7R,8R,9S,10R)-8,10-dihydroxy-7-(hydroxymethyl)-9-(4-(3,4,5-trifluorophenyl)-1H-1,2,3-triazol-1-yl)-1,6-dioxaspiro[4.5]decan-4-yl)-2,3-dihydro-1H-indene-1-carboxamide] | – |
| – | > 75 | OC[C@H]1O[C@]2(OCC[C@H]2Nc2ccccc2)[C@H](O)[C@@H](n2cc(-c3cc(F)c(F)c(F)c3)nn2)[C@H]1O [Compound A206, (4R,5S,7R,8R,9S,10R)-7-(hydroxymethyl)-4-(phenylamino)-9-(4-(3,4,5-trifluorophenyl)-1H-1,2,3-triazol-1-yl)-1,6-dioxaspiro[4.5]decane-8,10-diol] | – |
| – | 50 to 75 | CC1CO[C@@]2(C1)O[C@H](CO)[C@H](O)[C@H](n1cc(-c3cc(F)c(F)c(F)c3)nn1)[C@H]2O (stereo partly drawn) [Compound A214, (5S,7R,8R,9S,10R)-7-(hydroxymethyl)-3-methyl-9-(4-(3,4,5-trifluorophenyl)-1H-1,2,3-triazol-1-yl)-1,6-dioxaspiro[4.5]decane-8,10-diol] | – |
| > 75 | – | OC[C@H]1O[C@]2(OCC[C@H]2NCc2cccnc2)[C@H](O)[C@@H](n2cc(-c3cc(F)c(F)c(F)c3)nn2)[C@H]1O [Compound A85] | – |
| 25 to 50 | – | OC[C@H]1O[C@@]2(CCCCO2)[C@H](OCC(F)F)[C@@H](n2cc(-c3cc(F)c(F)c(F)c3)nn2)[C@H]1O [Compound A46, (2R,3R,4S,5R,6S)-5-(2,2-difluoroethoxy)-2-(hydroxymethyl)-4-(4-(3,4,5-trifluorophenyl)-1H-1,2,3-triazol-1-yl)-1,7-dioxaspiro[5.5]undecan-3-ol] | – |
| 50 to 75 | – | O=C(N[C@@H]1CCO[C@]12O[C@H](CO)[C@H](O)[C@H](n1cc(-c3cc(F)c(F)c(F)c3)nn1)[C@H]2O)c1cc2ccccc2s1 [Compound A124, N-((4R,5S,7R,8R,9S,10R)-8,10-dihydroxy-7-(hydroxymethyl)-9-(4-(3,4,5-trifluorophenyl)-1H-1,2,3-triazol-1-yl)-1,6-dioxaspiro[4.5]decan-4-yl)benzo[b]thiophene-2-carboxamide] | – |
| 25 to 50 | – | O=C(N[C@@H]1CCO[C@]12O[C@H](CO)[C@H](O)[C@H](n1cc(-c3cc(F)c(F)c(F)c3)nn1)[C@H]2O)c1ccccc1-c1ccccc1 [Compound A121, N-((4R,5S,7R,8R,9S,10R)-8,10-dihydroxy-7-(hydroxymethyl)-9-(4-(3,4,5-trifluorophenyl)-1H-1,2,3-triazol-1-yl)-1,6-dioxaspiro[4.5]decan-4-yl)-[1.1′ biphenyl]-2-carboxamide] | – |
| 50 to 75 | – | O=C(O[C@@H]1[C@@H](n2cc(-c3cc(F)c(F)c(F)c3)nn2)[C@@H](O)[C@@H](CO)O[C@@]12CCCO2)c1cccc(F)c1 [Compound A39, (5S,7R,8R,9S,10R)-8-hydroxy-7-(hydroxymethyl)-9-(4-(3,4,5-trifluorophenyl)-1H-1,2,3-triazol-1-yl)-1,6-dioxaspiro[4.5]decan-10-yl 3-fluorobenzoate] | – |
| – | – | COc1cccc(CN[C@@H]2CCO[C@]23O[C@H](CO)[C@H](O)[C@H](n2cc(-c4cc(F)c(F)c(F)c4)nn2)[C@H]3O)c1 [Compound A155, (4R,5S,7R,8R,9S,10R)-7-(hydroxymethyl)-4-((3-methoxylbenzyl)amino)-9-(4-(3,4,5-trifluorophenyl)-1H-1,2,3-triazol-1-yl)-1,6-dioxaspiro[4.5]decane-8,10-diol] | inhibition at 20 µM [2]: < 25% |
| < 25 | – | OC[C@H]1O[C@]2(OCC[C@H]2NCC2CCCC2)[C@H](O)[C@@H](n2cc(-c3cc(F)c(F)c(F)c3)nn2)[C@H]1O [Compound A104, (4R,5S,7R,8R,9S,10R)-4-((cyclopentylmethyl)amino)-7-(hydroxymethyl)-9-(4-(3,4,5-trifluorophenyl)-1H-1,2,3-triazol-1-yl)-1,6-dioxaspiro[4.5]decane-8,10-diol] | – |
| – | 50 to 75 | O=C(N[C@@H]1CCO[C@]12O[C@H](CO)[C@H](O)[C@H](n1cc(-c3cc(F)c(F)c(F)c3)nn1)[C@H]2O)c1ccc(Br)c2ncccc12 [Compound A213, 8-bromo-N-((4R,5S,7R,8R,9S,10R)-8,10-dihydroxy-7-(hydroxymethyl)-9-(4-(3,4,5-trifluorophenyl)-1H-1,2,3-triazol-1-yl)-1,6-dioxaspiro[4.5]decan-4-yl)quinoline-5-carboxamide] | – |
| 25 to 50 | – | Cn1nnc(-c2ccc(CO[C@@H]3[C@@H](n4cc(-c5cc(F)c(F)c(F)c5)nn4)[C@@H](O)[C@@H](CO)O[C@@]34CCCO4)cc2)n1 [Compound A28, (5S,7R,8R,9S,10R)-7-(hydroxymethyl)-10-((4-(2-methyl-2H-tetrazol-5-yl)benzyl)oxy)-9-(4-(3,4,5-trifluorophenyl)-1H-1,2,3-triazol-1-yl)-1,6-dioxaspiro[4.5]decan-8-ol] | – |
| 25 to 50 | – | OC[C@H]1O[C@@]2(CCCCO2)[C@H](O)[C@@H](n2cc(-c3cc(F)c(F)c(F)c3)nn2)[C@H]1O [Compound A24, (2R,3R,4S,5R,6S)-2-(hydroxymethyl)-4-(4-(3,4,5-trifluorophenyl)-1H-1,2,3-triazol-1-yl)-1,7-dioxaspiro[5.5]undecane-3,5-diol] | – |
| – | < 25 | O=C(c1cccc2ccccc12)N1CCC[C@]2(C1)O[C@H](CO)[C@H](O)[C@H](n1cc(-c3cc(F)c(F)c(F)c3)nn1)[C@H]2O [Compound A185, ((2R,3R,4S,5R,6R)-3,5-dihydroxy-2-(hydroxymethyl)-4-(4-(3,4,5-trifluorophenyl)-1H-1,2,3-triazol-1-yl)-1-oxa-8-azaspiro[5.5]undecan-8-yl)(naphthalen-1-yl)methanone] | – |
| – | < 25 | OC[C@H]1O[C@@]2(CCCN(c3ccc(Cl)cc3)C2)[C@H](O)[C@@H](n2cc(-c3cc(F)c(F)c(F)c3)nn2)[C@H]1O [Compound A224, (2R,3R,4S,5R,6R)-8-(4-chlorophenyl)-2-(hydroxymethyl)-4-(4-(3,4,5-trifluorophenyl)-1H-1,2,3-triazol-1-yl)-1-oxa-8-azaspiro[5.5]undecane-3,5-diol] | inhibition at 20 µM (Table 3, found values, read-out: % Inhibitory activity (at 20 μM)): 24.2% |
| – | > 75 | O=C(N[C@@H]1CCO[C@]12O[C@H](CO)[C@H](O)[C@H](n1cc(-c3cc(F)c(F)c(F)c3)nn1)[C@H]2O)c1c[nH]c2cccc(F)c12 [Compound A255, N-((4R,5S,7R,8R,9S,10R)-8,10-dihydroxy-7-(hydroxymethyl)-9-(4-(3,4,5-trifluorophenyl)-1H-1,2,3-triazol-1-yl)-1,6-dioxaspiro[4.5]decan-4-yl)-4-fluoro-1H-indole-3-carboxamide] | – |
| < 25 | – | O=C(c1ccccc1)N1CCC[C@]2(C1)O[C@H](CO)[C@H](O)[C@H](n1cc(-c3cc(F)c(F)c(F)c3)nn1)[C@H]2O [Compound A138, ((2R,3R,4S,5R,6R)-3,5-dihydroxy-2-(hydroxymethyl)-4-(4-(3,4,5-trifluorophenyl)-1H-1,2,3-triazol-1-yl)-1-oxa-8-azaspiro[5.5]undecan-8-yl)(phenyl)methanone] | – |
